Source: ChEMBL document CHEMBL4339185 (Eur J Med Chem, 2019)
Values after ≈ are worked out from the molar mass of the structure shown.

Experiments:
[1] = test system: Staphylococcus aureus; experiment: Antimicrobial activity against MLSB-resistant Staphylococcus aureus incubated for 18 hrs by serial microdilution method; assay type: functional
[2] = test system: Enterococcus faecalis; experiment: Antimicrobial activity against Enterococcus faecalis ATCC 29212 incubated for 18 hrs by serial microdilution method; assay type: functional; conditions: ATCC 29212, 18 h
[3] = test system: Staphylococcus aureus; experiment: Antimicrobial activity against Staphylococcus aureus ATCC 6538 incubated for 18 hrs by serial microdilution method; assay type: functional; conditions: ATCC 6538, 18 h
[4] = test system: Staphylococcus epidermidis; experiment: Antimicrobial activity against Staphylococcus epidermidis ATCC 49134 incubated for 18 hrs by serial microdilution method; assay type: functional; conditions: ATCC 49134, 18 h
[5] = test system: Staphylococcus aureus; experiment: Antimicrobial activity against methicillin-resistant Staphylococcus aureus incubated for 18 hrs by serial microdilution method; assay type: functional
[6] = test system: Escherichia coli; experiment: Antimicrobial activity against Escherichia coli ATCC 25922 incubated for 18 hrs by serial microdilution method; assay type: functional; conditions: ATCC 25922, 18 h
[7] = test system: Staphylococcus epidermidis; experiment: Antimicrobial activity against Staphylococcus epidermidis ATCC 12228 incubated for 18 hrs by serial microdilution method; assay type: functional; conditions: ATCC 12228, 18 h
[8] = Lipophilicity, log P of the compound in octanol and water incubated for 1 h under shaking condition; assay type: physicochemical
[9] = Solubility of the compound in water at pH 7 by UV-vis spectrophotometric analysis; assay type: physicochemical

| SMILES | MIC [1] [µg/mL] | MIC [2] [µg/mL] | MIC [3] [µg/mL] | MIC [4] [µg/mL] | MIC [5] [µg/mL] | MIC [6] [µg/mL] | MIC [7] [µg/mL] | logP at 1 h [8] | solubility [9] [µg/mL] |
| --- | --- | --- | --- | --- | --- | --- | --- | --- | --- |
| CO[C@H]1/C=C/O[C@@]2(C)Oc3c(C)c(O)c4c(O)c(c(CNCC(=O)N5CCCCC5)c(O)c4c3C2=O)NC(=O)/C(C)=C\C=C\[C@H](C)[C@H](O)[C@@H](C)[C@@H](O)[C@@H](C)[C@H](OC(C)=O)[C@@H]1C | 1 (≈ 1.17 µM) | > 8 | 1 (≈ 1.17 µM) | 0.25 (≈ 0.293 µM) | 1 (≈ 1.17 µM) | > 8 | 0.5 (≈ 0.587 µM) | 1.35 | 120 (≈ 141 µM) |
| CO[C@H]1/C=C/O[C@@]2(C)Oc3c(C)c(O)c4c(O)c(c(CNC5CCN(CC(=O)O)CC5)c(O)c4c3C2=O)NC(=O)/C(C)=C\C=C\[C@H](C)[C@H](O)[C@@H](C)[C@@H](O)[C@@H](C)[C@H](OC(C)=O)[C@@H]1C | 0.5 (≈ 0.576 µM) | > 8 | 0.25 (≈ 0.288 µM) | 0.0625 (≈ 0.072 µM) | 0.25 (≈ 0.288 µM) | > 8 | 0.0625 (≈ 0.072 µM) | -1.5 | > 100000 |
| CO[C@H]1/C=C/O[C@@]2(C)Oc3c(C)c(O)c4c(O)c(c(CN5CCN(C(c6ccc(F)cc6)c6ccc(F)cc6)CC5)c(O)c4c3C2=O)NC(=O)/C(C)=C\C=C\[C@H](C)[C@H](O)[C@@H](C)[C@@H](O)[C@@H](C)[C@H](OC(C)=O)[C@@H]1C | 8 (≈ 8.01 µM) | > 8 | 4 (≈ 4.01 µM) | 2 (≈ 2 µM) | 4 (≈ 4.01 µM) | > 8 | 4 (≈ 4.01 µM) | 2.34 | < 50 |
| CCS(=O)(=O)N1CCN(Cc2c3c(O)c4c(O)c(C)c5c(c4c2O)C(=O)[C@@](C)(O/C=C/[C@H](OC)[C@@H](C)[C@@H](OC(C)=O)[C@H](C)[C@H](O)[C@H](C)[C@@H](O)[C@@H](C)/C=C/C=C(/C)C(=O)N3)O5)CC1 | 0.5 (≈ 0.563 µM) | > 8 | 0.5 (≈ 0.563 µM) | 0.25 (≈ 0.282 µM) | 0.5 (≈ 0.563 µM) | > 8 | 0.25 (≈ 0.282 µM) | 1.41 | 1730 (≈ 1950 µM) |
| CO[C@H]1/C=C/O[C@@]2(C)Oc3c(C)c(O)c4c(O)c(c(CN5CCN(c6ccccn6)CC5)c(O)c4c3C2=O)NC(=O)/C(C)=C\C=C\[C@H](C)[C@H](O)[C@@H](C)[C@@H](O)[C@@H](C)[C@H](OC(C)=O)[C@@H]1C | 0.5 (≈ 0.573 µM) | > 8 | 2 (≈ 2.29 µM) | 0.25 (≈ 0.286 µM) | 1 (≈ 1.15 µM) | > 8 | 0.25 (≈ 0.286 µM) | 1.99 | < 50 |
| CO[C@H]1/C=C/O[C@@]2(C)Oc3c(C)c(O)c4c(O)c(c(CN5CCN(c6ncccc6C(F)(F)F)CC5)c(O)c4c3C2=O)NC(=O)/C(C)=C\C=C\[C@H](C)[C@H](O)[C@@H](C)[C@@H](O)[C@@H](C)[C@H](OC(C)=O)[C@@H]1C | 2 (≈ 2.13 µM) | > 8 | 2 (≈ 2.13 µM) | 0.5 (≈ 0.531 µM) | 4 (≈ 4.25 µM) | > 8 | 0.5 (≈ 0.531 µM) | 2.09 | < 50 |
| CO[C@H]1/C=C/O[C@@]2(C)Oc3c(C)c(O)c4c(O)c(c(/C=N/N5CCCCCC5)c(O)c4c3C2=O)NC(=O)/C(C)=C\C=C\[C@H](C)[C@H](O)[C@@H](C)[C@@H](O)[C@@H](C)[C@H](OC(C)=O)[C@@H]1C | 0.5 (≈ 0.608 µM) | 0.5 (≈ 0.608 µM) | 0.0625 (≈ 0.076 µM) | 0.0312 (≈ 0.038 µM) | 0.0625 (≈ 0.076 µM) | > 8 | 0.0312 (≈ 0.038 µM) | 3.43 | < 300 |
| CO[C@H]1/C=C/O[C@@]2(C)Oc3c(C)c(O)c4c(O)c(c(/C=N/NCc5ccccc5)c(O)c4c3C2=O)NC(=O)/C(C)=C\C=C\[C@H](C)[C@H](O)[C@@H](C)[C@@H](O)[C@@H](C)[C@H](OC(C)=O)[C@@H]1C | 0.5 (≈ 0.602 µM) | > 8 | 0.5 (≈ 0.602 µM) | 0.25 (≈ 0.301 µM) | 1 (≈ 1.2 µM) | > 8 | 0.25 (≈ 0.301 µM) | 2.34 | < 50 |
| CO[C@H]1/C=C/O[C@@]2(C)Oc3c(C)c(O)c4c(O)c(c(CN5CCN(Cc6ccc(F)cc6)CC5)c(O)c4c3C2=O)NC(=O)/C(C)=C\C=C\[C@H](C)[C@H](O)[C@@H](C)[C@@H](O)[C@@H](C)[C@H](OC(C)=O)[C@@H]1C | 0.25 (≈ 0.277 µM) | 8 (≈ 8.85 µM) | 1 (≈ 1.11 µM) | 0.25 (≈ 0.277 µM) | 1 (≈ 1.11 µM) | > 8 | 0.25 (≈ 0.277 µM) | 3.31 | < 50 |
| CO[C@H]1/C=C/O[C@@]2(C)Oc3c(C)c(O)c4c(O)c(c(CNC5CCCC(C(N)=O)C5)c(O)c4c3C2=O)NC(=O)/C(C)=C\C=C\[C@H](C)[C@H](O)[C@@H](C)[C@@H](O)[C@@H](C)[C@H](OC(C)=O)[C@@H]1C (stereo partly drawn) | 0.25 (≈ 0.293 µM) | > 8 | 0.5 (≈ 0.587 µM) | 0.25 (≈ 0.293 µM) | 0.5 (≈ 0.587 µM) | > 8 | 0.25 (≈ 0.293 µM) | 1.33 | 150 (≈ 176 µM) |
| CO[C@H]1/C=C/O[C@@]2(C)Oc3c(C)c(O)c4c(O)c(c(CN5CCN(C)C6(CCN(C)CC6)C5)c(O)c4c3C2=O)NC(=O)/C(C)=C\C=C\[C@H](C)[C@H](O)[C@@H](C)[C@@H](O)[C@@H](C)[C@H](OC(C)=O)[C@@H]1C | 0.125 (≈ 0.14 µM) | 2 (≈ 2.24 µM) | 0.25 (≈ 0.28 µM) | 0.0625 (≈ 0.07 µM) | 0.125 (≈ 0.14 µM) | > 8 | 0.0625 (≈ 0.07 µM) | 0.72 | 1830 (≈ 2050 µM) |
| CO[C@H]1/C=C/O[C@@]2(C)Oc3c(C)c(O)c4c(O)c(c(/C=N/N5CCCC5)c(O)c4c3C2=O)NC(=O)/C(C)=C\C=C\[C@H](C)[C@H](O)[C@@H](C)[C@@H](O)[C@@H](C)[C@H](OC(C)=O)[C@@H]1C | 0.5 (≈ 0.63 µM) | 4 (≈ 5.04 µM) | 0.25 (≈ 0.315 µM) | 0.25 (≈ 0.315 µM) | 0.25 (≈ 0.315 µM) | > 8 | 0.25 (≈ 0.315 µM) | 3.13 | < 300 |
| CO[C@H]1/C=C/O[C@@]2(C)Oc3c(C)c(O)c4c(O)c(c(/C=N/NC(C)(C)C)c(O)c4c3C2=O)NC(=O)/C(C)=C\C=C\[C@H](C)[C@H](O)[C@@H](C)[C@@H](O)[C@@H](C)[C@H](OC(C)=O)[C@@H]1C | 2 (≈ 2.51 µM) | 8 (≈ 10.1 µM) | 1 (≈ 1.26 µM) | 0.5 (≈ 0.628 µM) | 1 (≈ 1.26 µM) | > 8 | 1 (≈ 1.26 µM) | 2.43 | < 50 |
| CO[C@H]1/C=C/O[C@@]2(C)Oc3c(C)c(O)c4c(O)c(c(/C=N/N5CCN(C)CC5)c(O)c4c3C2=O)NC(=O)/C(C)=C\C=C\[C@H](C)[C@H](O)[C@@H](C)[C@@H](O)[C@@H](C)[C@H](OC(C)=O)[C@@H]1C [RIFAMPIN] | 0.0312 (≈ 0.038 µM) | 8 (≈ 9.72 µM) | 0.0156 (≈ 0.019 µM) | 0.0156 (≈ 0.019 µM) | 0.0156 (≈ 0.019 µM) | > 8 | 0.0156 (≈ 0.019 µM) |  |  |
| CO[C@H]1/C=C/O[C@@]2(C)Oc3c(C)c(O)c4c(O)c(c5c(nc6cc(C)ccn65)c4c3C2=O)NC(=O)/C(C)=C\C=C\[C@H](C)[C@H](O)[C@@H](C)[C@@H](O)[C@@H](C)[C@H](OC(C)=O)[C@@H]1C [RIFAXIMIN] | 0.125 (≈ 0.159 µM) | 8 (≈ 10.2 µM) | 0.0625 (≈ 0.0795 µM) | 0.0312 (≈ 0.0398 µM) | 0.0625 (≈ 0.0795 µM) | > 8 | 0.0312 (≈ 0.0398 µM) |  |  |
| CO[C@H]1/C=C/O[C@@]2(C)Oc3c(C)c(O)c4c(O)c(c(C=O)c(O)c4c3C2=O)NC(=O)/C(C)=C\C=C\[C@H](C)[C@H](O)[C@@H](C)[C@@H](O)[C@@H](C)[C@H](OC(C)=O)[C@@H]1C | 2 (≈ 2.76 µM) | > 8 | 2 (≈ 2.76 µM) | 2 (≈ 2.76 µM) | 4 (≈ 5.51 µM) | > 8 | 2 (≈ 2.76 µM) |  |  |
